Experimental data taken from PubChem BioAssay AID1963961 (Molecular Pharmacology Branch, DTP, NCI, 2024).

Test system: K98450-129-R-PDC multicell spheroids, viability
Assay: Anticancer human tumor K98450-129-R-PDC patient-derived colon adenocarcinoma cell line growth inhibition [PI3K]
Settings: for viability, T/C: stronger effect = lower value
Outline: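 Viability of mixed-cell spheroids was determined after exposure to pairwise combinations, one partner being inavolisib, alpelisib, duvelisib or copanlisib. Highest tested concentration matched clinical Cmax where known and 10 microM where not, descending in half-log steps.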

[1] = curve of first compound, second compound 0.0316 µM
[2] = curve of first compound, second compound 0.1 µM
[3] = curve of first compound, second compound 0.316 µM
[4] = curve of first compound, second compound 1 µM
[5] = second compound 0.0316 µM, first compound 0.0316 µM
[6] = second compound 0.0316 µM, first compound 0.1 µM
[7] = second compound 0.0316 µM, first compound 0.316 µM
[8] = second compound 0.0316 µM, first compound 1 µM
[9] = second compound 0.0316 µM, first compound 3.16 µM
[10] = second compound 0.0316 µM, first compound 10 µM
[11] = second compound 0.1 µM, first compound 0.0316 µM
[12] = second compound 0.1 µM, first compound 0.1 µM
[13] = second compound 0.1 µM, first compound 0.316 µM
[14] = second compound 0.1 µM, first compound 1 µM
[15] = second compound 0.1 µM, first compound 3.16 µM
[16] = second compound 0.1 µM, first compound 10 µM
[17] = second compound 0.316 µM, first compound 0.0316 µM
[18] = second compound 0.316 µM, first compound 0.1 µM
[19] = second compound 0.316 µM, first compound 0.316 µM
[20] = second compound 0.316 µM, first compound 1 µM
[21] = second compound 0.316 µM, first compound 3.16 µM
[22] = second compound 0.316 µM, first compound 10 µM
[23] = second compound 1 µM, first compound 0.0316 µM
[24] = second compound 1 µM, first compound 0.1 µM
[25] = second compound 1 µM, first compound 0.316 µM
[26] = second compound 1 µM, first compound 1 µM
[27] = second compound 1 µM, first compound 3.16 µM
[28] = second compound 1 µM, first compound 10 µM
[29] = curve of first compound, second compound 3.16 µM
[30] = curve of first compound, second compound 10 µM
[31] = second compound 3.16 µM, first compound 0.0316 µM
[32] = second compound 3.16 µM, first compound 0.1 µM
[33] = second compound 3.16 µM, first compound 0.316 µM
[34] = second compound 3.16 µM, first compound 1 µM
[35] = second compound 10 µM, first compound 0.0316 µM
[36] = second compound 10 µM, first compound 0.1 µM
[37] = second compound 10 µM, first compound 0.316 µM
[38] = second compound 10 µM, first compound 1 µM
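Further: spheroids exposed to agents for seven days before read-out.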

CC1(C)CCC(CN2CCN(c3ccc(C(=O)NS(=O)(=O)c4ccc(NCC5CCOCC5)c([N+](=O)[O-])c4)c(Oc4cnc5[nH]ccc5c4)c3)CC2)=C(c2ccc(Cl)cc2)C1 + CC(Nc1ccc2c(c1)OCCn1cc(N3C(=O)OCC3C(F)F)nc1-2)C(N)=O
IC50 (curve of first compound, second compound 0.00316 µM): 5.72 µM | IC50 (curve of first compound, second compound 0.01 µM): 5.95 µM | IC50 [1]: 5.96 µM | IC50 [2]: 5.68 µM | IC50 [3]: 5.6 µM | IC50 [4]: 5.38 µM | viability, T/C (second compound 0.00316 µM, first compound 0.0316 µM): 105% | viability, T/C (second compound 0.00316 µM, first compound 0.1 µM): 105% | viability, T/C (second compound 0.00316 µM, first compound 0.316 µM): 99.9% | viability, T/C (second compound 0.00316 µM, first compound 1 µM): 103% | viability, T/C (second compound 0.00316 µM, first compound 3.16 µM): 96.5% | viability, T/C (second compound 0.00316 µM, first compound 10 µM): 6.21% | viability, T/C (second compound 0.01 µM, first compound 0.0316 µM): 111% | viability, T/C (second compound 0.01 µM, first compound 0.1 µM): 98.7% | viability, T/C (second compound 0.01 µM, first compound 0.316 µM): 109% | viability, T/C (second compound 0.01 µM, first compound 1 µM): 104% | viability, T/C (second compound 0.01 µM, first compound 3.16 µM): 103% | viability, T/C (second compound 0.01 µM, first compound 10 µM): 6.45% | viability, T/C [5]: 106% | viability, T/C [6]: 107% | viability, T/C [7]: 106% | viability, T/C [8]: 99.6% | viability, T/C [9]: 99.8% | viability, T/C [10]: 9.42% | viability, T/C [11]: 98.2% | viability, T/C [12]: 104% | viability, T/C [13]: 103% | viability, T/C [14]: 102% | viability, T/C [15]: 95.2% | viability, T/C [16]: 6.43% | viability, T/C [17]: 97.9% | viability, T/C [18]: 92.8% | viability, T/C [19]: 101% | viability, T/C [20]: 85.3% | viability, T/C [21]: 96.3% | viability, T/C [22]: 4.55% | viability, T/C [23]: 86.6% | viability, T/C [24]: 88.1% | viability, T/C [25]: 89.8% | viability, T/C [26]: 90.2% | viability, T/C [27]: 85.2% | viability, T/C [28]: 8.82%

CCN1CCN(Cc2ccc(Nc3ncc(F)c(-c4cc(F)c5nc(C)n(C(C)C)c5c4)n3)nc2)CC1 + CC(Nc1ncnc2nc[nH]c12)c1cc2cccc(Cl)c2c(=O)n1-c1ccccc1
IC50 [1]: > 1 µM | IC50 [2]: > 1 µM | IC50 [3]: > 1 µM | IC50 [4]: > 1 µM | IC50 [29]: > 1 µM | IC50 [30]: > 1 µM | viability, T/C (second compound 0.0316 µM, first compound 0.00316 µM): 111% | viability, T/C (second compound 0.0316 µM, first compound 0.01 µM): 102% | viability, T/C [5]: 109% | viability, T/C [6]: 83.5% | viability, T/C [7]: 81.6% | viability, T/C [8]: 87% | viability, T/C (second compound 0.1 µM, first compound 0.00316 µM): 106% | viability, T/C (second compound 0.1 µM, first compound 0.01 µM): 107% | viability, T/C [11]: 91.9% | viability, T/C [12]: 87.7% | viability, T/C [13]: 87% | viability, T/C [14]: 95% | viability, T/C (second compound 0.316 µM, first compound 0.00316 µM): 101% | viability, T/C (second compound 0.316 µM, first compound 0.01 µM): 108% | viability, T/C [17]: 94.6% | viability, T/C [18]: 90.3% | viability, T/C [19]: 89.7% | viability, T/C [20]: 89.1% | viability, T/C (second compound 1 µM, first compound 0.00316 µM): 93.1% | viability, T/C (second compound 1 µM, first compound 0.01 µM): 92.5% | viability, T/C [23]: 95.9% | viability, T/C [24]: 89.4% | viability, T/C [25]: 84.8% | viability, T/C [26]: 102% | viability, T/C (second compound 3.16 µM, first compound 0.00316 µM): 95.1% | viability, T/C (second compound 3.16 µM, first compound 0.01 µM): 91.6% | viability, T/C [31]: 81.1% | viability, T/C [32]: 90.8% | viability, T/C [33]: 82.4% | viability, T/C [34]: 83.2% | viability, T/C (second compound 10 µM, first compound 0.00316 µM): 86% | viability, T/C (second compound 10 µM, first compound 0.01 µM): 83.5% | viability, T/C [35]: 81.9% | viability, T/C [36]: 82.5% | viability, T/C [37]: 86.1% | viability, T/C [38]: 78.2%

C#Cc1c(F)ccc2cc(O)cc(-c3ncc4c(N5CC6CCC(C5)N6)nc(OCC56CCCN5CC(F)C6)nc4c3F)c12 (stereo not given) + CC(Nc1ncnc2nc[nH]c12)c1cc2cccc(Cl)c2c(=O)n1-c1ccccc1
IC50 [1]: > 10 µM | IC50 [2]: > 10 µM | IC50 [3]: > 10 µM | IC50 [4]: > 10 µM | IC50 [29]: > 10 µM | IC50 [30]: > 10 µM | viability, T/C [5]: 120% | viability, T/C [6]: 101% | viability, T/C [7]: 99.1% | viability, T/C [8]: 91.7% | viability, T/C [9]: 90.9% | viability, T/C [10]: 92.9% | viability, T/C [11]: 116% | viability, T/C [12]: 98.7% | viability, T/C [13]: 96.4% | viability, T/C [14]: 90.1% | viability, T/C [15]: 98.2% | viability, T/C [16]: 90.6% | viability, T/C [17]: 110% | viability, T/C [18]: 106% | viability, T/C [19]: 91.1% | viability, T/C [20]: 100% | viability, T/C [21]: 101% | viability, T/C [22]: 96.2% | viability, T/C [23]: 98.9% | viability, T/C [24]: 91.6% | viability, T/C [25]: 104% | viability, T/C [26]: 84.1% | viability, T/C [27]: 115% | viability, T/C [28]: 77.5% | viability, T/C [31]: 89.4% | viability, T/C [32]: 89.9% | viability, T/C [33]: 93.5% | viability, T/C [34]: 85.1% | viability, T/C (second compound 3.16 µM, first compound 3.16 µM): 92% | viability, T/C (second compound 3.16 µM, first compound 10 µM): 87.4% | viability, T/C [35]: 87.5% | viability, T/C [36]: 98.2% | viability, T/C [37]: 88.2% | viability, T/C [38]: 91.3% | viability, T/C (second compound 10 µM, first compound 3.16 µM): 99.9% | viability, T/C (second compound 10 µM, first compound 10 µM): 75.1%

CCCS(=O)(=O)Nc1ccc(F)c(C(=O)c2c[nH]c3ncc(-c4ccc(Cl)cc4)cc23)c1F
viability, T/C (compound 0.0316 µM): 104% [middle of 4 runs] | viability, T/C (compound 0.316 µM): 116% [middle of 4 runs] | viability, T/C (compound 10 µM): 7.9% [middle of 4 runs] | IC50 (curve of compound): 6.15 µM [middle of 4 runs]
